Results: US20240299406A1, “NEURONAL NICOTINIC ACETYLCHOLINE RECEPTOR PARTIAL AGONISTS AS THERAPEUTICS FOR CHRONIC TINNITUS” (Board of Trustees of Southern Illinois University, priority 2019, published 2024)
Entries after “also recorded” stand apart in the source; their conditions may differ.

What was measured:
[1] = non-specific drug effects (cage observation, session lever pressing); type: in vivo, rats
Method: FIG. 10 illustrates the data for a non-specific effect. The non-specific effects appeared 10 to 15 min after treatment but were not present 1 hr after treatment, i.e., at the beginning of the test period.
(§1) Sterile normal saline was considered a pharmaceutically acceptable carrier, but other pharmaceutically acceptable carriers may also be used as a substitute. All animals, unexposed controls and sound-exposed, were drug treated and tested in parallel. […] Dose levels of 0.1, 0.5, and 1 mg/kg were tested for therapeutic effect, over a minimum of 3 consecutive days for each dose level. Washout periods of 1 to 5 weeks (5 test sessions per week) intervened between drug-testing, as required to recover pre-drug baseline tinnitus performance.
At 1 mg/kg. […] Within 10 min of drug treatment all animals assumed a prone resting position in their home cage, which lasted about 10 min. Afterward animals resumed normal cage activity, e.g., moving about, grooming, sniffing. […] This behavior was not observed in washout or saline (vehicle) sessions, nor was it observed in the remaining 15 animals. Mild sedation was indicated by a decrease in total bar pressing at 1.0 mg/kg (FIG. 10).

[2] = biological target: α4β2 nAChRs (Homo sapiens, UniProt P17787+P43681); details: cited from earlier work; for affinity for β2-containing nAChRs: partial nAChR agonists
[3] = system: rats with behavioral evidence of tinnitus; assay: operant conditioned-suppression behavioral test for tinnitus (suppression ratio, 20 kHz test series); type: in vivo, Long Evans rats; details: for evidence of tinnitus: SC injection
Excerpt: Unilaterally sound-exposed animals were used to study the effects of sazetidine on tinnitus. Experiments used an established behavioral psychoacoustic test to determine whether sazetidine could ameliorate tinnitus in subjects (rats) with behavioral evidence of tinnitus. Three months following sound-exposure, animals with tinnitus show consistent difficulty identifying silence. Sounds of varying intensity/levels were presented to sound-exposed (tinnitus) and unexposed (non-tinnitus control) subjects. The animals' behavior, quantified as a suppression ratio, indicated their level of tinnitus. Greater suppression, i.e., a decrease in lever pressing, indicates the presence of tinnitus.
The present study examined the potential therapeutic effect of sazetidine and varenicline to ameliorate tinnitus in rats with behavioral evidence of tinnitus. For two decades, an operant-behavior model has been used to investigate tinnitus pathology. In this model, animals are taught to attend closely to their auditory sensations using a conditioned suppression procedure: Animals lever press for food pellets in the presence of low-level background sounds, randomly punctuated by sound-off (silence) periods. Sound-off (silence) lever pressing earns food pellets but leads to a mild foot shock at the conclusion of the sound off presentation. The animals are therefore conditioned to stop lever pressing when the external sound is off, i.e., conditioned suppression. In this paradigm, the animals are conditioned to attend to their sound environment, and when tones of different frequencies and levels/intensities are substituted for some of the sound-off periods, the attendant behavior can be used to derive psychometric functions indicative of tinnitus.
Sixteen, 96-day old Long Evans rats (Envigo, Indianapolis, IN, USA) were anesthetized with a 1.7 percent isoflurane/02 mixture, placed in a head holder. A Fostex speaker (FT17H, Akashima, Japan) was attached to a 2 cm length of flexible tubing positioned at the entrance of the right ear canal. Eight randomly selected rats were unilaterally exposed once to band-limited noise for 1 hr, with a peak level of 120 dB (SPL) centered at 16 kHz, falling to ambient levels at 8 kHz and 24 kHz. During sound-exposure, the contralateral canal was obstructed by a canal-fitted plastic plug/tube from the contralateral speaker. Auditory brainstem responses (ABRs), which measure hearing, were obtained before and after exposure for pure tones at 8, 10, 12, 16, 20, 24, and 32 kHz, presented in 10 dB decrements between 95 and 5 dB (SPL re […]). Eight unexposed animals were similarly tested. Tinnitus testing began 3 months following sound-exposure and hearing-level determination.
Sazetidine A dihydrochloride (batch 2A/187725) was obtained in solid form, from Tocris Bioscience (Minneapolis, MN, USA). The drug was dissolved in sterile normal saline at a concentration of 2 mg/ml, or less, and administered as a subcutaneous injection (SC) 1 hour prior to behavioral testing.
Varenicline, varenicline tartrate, was purchased from Santa Cruz Biotechnology, Inc. (Dallas, Texas, USA). The drug was dissolved in sterile normal saline at a concentration of 1 mg/ml, or less, and administered as a SC injection 1 hour prior to behavioral testing.
as §1
Prior to the start of drug testing, each group was optimized to five rats per group. […]

[4] = biological target: T1, α7 nAChRs (Homo sapiens, UniProt P36544); details: cited from earlier work
[5] = biological target: T2, α3β4 nAChRs (Homo sapiens, UniProt P30926+P32297); details: cited from earlier work
[6] = biological target: T1, α7 nAChRs; details: cited from earlier work; remark: listed apart in the source
[7] = system: rats with behavioral evidence of tinnitus; assay: operant conditioned-suppression behavioral test for tinnitus (suppression ratio, 20 kHz test series); type: in vivo, Long Evans rats; details: 0.5 mg/kg; 12 animals with tinnitus compared to 8 unexposed controls
[8] = biological target: T2, α3β4 nAChRs; details: at lower affinity; cited from earlier work

Sequence of α4β2 nAChRs (P43681 29-627 limits assumed): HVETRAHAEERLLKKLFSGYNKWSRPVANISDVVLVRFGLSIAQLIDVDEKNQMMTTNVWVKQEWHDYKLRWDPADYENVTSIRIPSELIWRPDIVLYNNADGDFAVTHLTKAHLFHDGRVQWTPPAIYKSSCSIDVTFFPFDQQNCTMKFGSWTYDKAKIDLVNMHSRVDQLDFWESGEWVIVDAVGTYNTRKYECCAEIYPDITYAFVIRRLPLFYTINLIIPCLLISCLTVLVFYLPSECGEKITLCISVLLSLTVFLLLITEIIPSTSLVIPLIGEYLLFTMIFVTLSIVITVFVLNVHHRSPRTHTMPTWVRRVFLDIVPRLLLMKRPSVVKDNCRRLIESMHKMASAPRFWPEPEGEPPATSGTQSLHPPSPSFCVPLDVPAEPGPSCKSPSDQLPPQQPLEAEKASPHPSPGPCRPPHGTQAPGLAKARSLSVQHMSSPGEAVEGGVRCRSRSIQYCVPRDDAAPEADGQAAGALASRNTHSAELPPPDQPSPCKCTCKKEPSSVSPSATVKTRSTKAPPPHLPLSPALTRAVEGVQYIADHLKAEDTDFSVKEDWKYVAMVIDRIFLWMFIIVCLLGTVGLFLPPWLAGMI
Sequence of α4β2 nAChRs (P17787 26-502): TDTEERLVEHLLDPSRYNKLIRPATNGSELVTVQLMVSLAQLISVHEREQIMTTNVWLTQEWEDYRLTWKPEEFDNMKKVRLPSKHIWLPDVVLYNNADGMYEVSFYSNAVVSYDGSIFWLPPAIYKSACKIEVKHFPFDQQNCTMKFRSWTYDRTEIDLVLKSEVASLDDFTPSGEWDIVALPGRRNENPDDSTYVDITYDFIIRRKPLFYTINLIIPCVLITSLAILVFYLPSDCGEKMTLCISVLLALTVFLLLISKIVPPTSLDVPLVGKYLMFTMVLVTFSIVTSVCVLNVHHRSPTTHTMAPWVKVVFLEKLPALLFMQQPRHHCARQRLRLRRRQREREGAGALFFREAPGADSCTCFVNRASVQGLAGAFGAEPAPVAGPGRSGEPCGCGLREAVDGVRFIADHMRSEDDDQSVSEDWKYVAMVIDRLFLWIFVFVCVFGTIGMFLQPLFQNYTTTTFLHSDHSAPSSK
T2 sequence (P32297 32-505): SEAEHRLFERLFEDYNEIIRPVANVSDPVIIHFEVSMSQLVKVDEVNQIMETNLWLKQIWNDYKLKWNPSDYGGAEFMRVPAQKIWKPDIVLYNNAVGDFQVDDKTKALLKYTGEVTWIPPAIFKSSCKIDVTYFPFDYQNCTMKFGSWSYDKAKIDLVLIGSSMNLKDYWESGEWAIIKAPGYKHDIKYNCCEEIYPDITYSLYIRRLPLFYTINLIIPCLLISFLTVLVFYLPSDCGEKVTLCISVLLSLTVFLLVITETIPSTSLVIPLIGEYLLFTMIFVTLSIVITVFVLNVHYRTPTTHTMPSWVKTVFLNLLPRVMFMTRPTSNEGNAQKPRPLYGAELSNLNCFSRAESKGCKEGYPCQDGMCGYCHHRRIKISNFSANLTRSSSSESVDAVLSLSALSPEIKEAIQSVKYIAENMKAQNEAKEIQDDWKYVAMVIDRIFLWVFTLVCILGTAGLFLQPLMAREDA
T2 sequence (P30926 22-498): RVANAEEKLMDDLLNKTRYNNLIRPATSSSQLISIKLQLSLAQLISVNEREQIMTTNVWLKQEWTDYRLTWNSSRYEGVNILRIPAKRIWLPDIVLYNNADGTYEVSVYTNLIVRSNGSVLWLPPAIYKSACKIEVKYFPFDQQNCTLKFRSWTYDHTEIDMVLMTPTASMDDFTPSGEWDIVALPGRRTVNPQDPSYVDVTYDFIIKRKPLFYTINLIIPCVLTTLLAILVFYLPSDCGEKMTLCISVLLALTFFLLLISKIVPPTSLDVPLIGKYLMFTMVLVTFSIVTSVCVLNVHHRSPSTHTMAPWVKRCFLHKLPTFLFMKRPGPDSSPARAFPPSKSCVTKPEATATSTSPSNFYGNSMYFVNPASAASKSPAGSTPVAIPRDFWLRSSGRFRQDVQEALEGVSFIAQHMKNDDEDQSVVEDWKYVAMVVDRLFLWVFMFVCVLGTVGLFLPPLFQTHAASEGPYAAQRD
T1 sequence (P36544 23-502): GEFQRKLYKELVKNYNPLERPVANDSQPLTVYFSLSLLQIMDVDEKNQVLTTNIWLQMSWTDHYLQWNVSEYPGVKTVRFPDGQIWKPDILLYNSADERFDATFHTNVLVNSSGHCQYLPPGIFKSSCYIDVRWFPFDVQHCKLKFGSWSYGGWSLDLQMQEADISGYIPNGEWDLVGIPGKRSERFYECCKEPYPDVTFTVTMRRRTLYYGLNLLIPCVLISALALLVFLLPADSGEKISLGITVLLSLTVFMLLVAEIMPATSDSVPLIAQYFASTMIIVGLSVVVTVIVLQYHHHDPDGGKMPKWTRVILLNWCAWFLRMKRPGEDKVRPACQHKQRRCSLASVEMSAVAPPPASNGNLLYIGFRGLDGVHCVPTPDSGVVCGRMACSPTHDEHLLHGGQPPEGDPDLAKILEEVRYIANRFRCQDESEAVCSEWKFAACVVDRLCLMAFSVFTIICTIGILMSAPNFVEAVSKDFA

Compound: OCCCCC#Cc1cncc(OC[C@@H]2CCN2)c1 [sazetidine]
- sedation (decrease in total bar pressing) ([1]; 1.0 mg/kg, FIG. 10): Mild sedation
- excess salivation, share of animals ([1]; 1.0 mg/kg, visual evidence): about a third of the animals
- non-specific effects at the beginning of the test period ([1]; 1 hr after treatment, FIG. 10): not present
- non-specific drug effects ([1]; FIG. 10): evident at 1 mg/kg
- time of appearance of non-specific effects after treatment ([1]; FIG. 10): 10 to 15 min
- time to prone resting position in home cage, all animals ([1]; after drug treatment): ≤ 10 min
- sedation (decrease in session lever pressing) ([1]; higher doses, FIG. 10): some general sedation
- duration of prone resting position ([1]; rat, in vivo): about 10 min
- drug-dependent agitation, animals affected ([1]; sound-exposed animal without evidence of tinnitus): One animal (out of 16)
- concentration that desensitizes α4β2 nAChRs [2]: low nanomolar concentrations
- affinity for β2-containing nAChRs [2]: very high affinity
- therapeutic effect on tinnitus ([3]; 0.1 mg/kg SC, FIG. 9): potentially weak therapeutic effect
- tinnitus dose-response (tinnitus suppression ratio) ([3]; 0.1 mg/kg to 1.0 mg/kg SC, FIG. 11): Therapeutic effect increased with dose; also recorded: effectiveness increases as the dose is increased
- suppression curve of tinnitus animals versus unexposed control animals ([3]; 0.5 mg/kg SC, FIG. 8): no longer significantly different
- suppression curve of tinnitus animals versus unexposed control animals ([3]; 1 mg/kg SC, first test, FIG. 2): no longer significantly different
- suppression curve of tinnitus animals versus unexposed control animals ([3]; 1 mg/kg SC, second test (1st replication), FIG. 5): again no longer significantly different
- therapeutic effect on tinnitus ([3]; 1 mg/kg SC, third test (2nd replication), one week after 1st replication, FIG. 6): No therapeutic effect was observed
- evidence of tinnitus ([3]; 0.1 mg/kg): significantly reduced evidence of tinnitus
- evidence of tinnitus ([3]; 0.5 mg/kg): effectively and significantly decreased evidence of tinnitus
- evidence of tinnitus ([3]; 1 mg/kg): effectively and significantly decreased evidence of tinnitus
- dose level at which statistical effectiveness begins ([3]; SC, FIG. 11): about 0.5 mg/kg
- suppression curve of tinnitus animals versus unexposed control animals ([3]; five weeks following initial treatment, saline SC before test, FIG. 4): again statistically significantly different
- suppression curve of tinnitus animals versus unexposed control animals ([3]; one week following initial treatment, washout, FIG. 3): remain similar to control
- tinnitus-related symptoms/lever pressing ([3]; treatment 1 hour before testing): decreased tinnitus-related symptoms/lever pressing
- selectivity for α4β2 nAChRs relative to α7 nAChRs [4]: 3,500 fold
- selectivity for α4β2 nAChRs compared to α3β4 nAChRs [5]: > 20,000 fold

Compound: c1cnc2cc3c(cc2n1)C1CNCC3C1 [varenicline, 7,8,9,10-tetrahydro-6,10-methano-6H-pyrazino[2,3-h][3]-benzazepine]
- concentration that desensitizes α4β2 nAChRs [2]: low nanomolar concentrations
- affinity for β2-containing nAChRs [2]: very high affinity
- type of action at α7 nAChRs [6]: full agonist activity
- suppression curve of tinnitus animals versus unexposed control animals ([3]; 0.5 mg/kg SC, FIG. 13): no longer significantly different
- linearity of tinnitus reduction across doses ([3]; doses between 0.1 and 1.0 mg/kg): not-linear
- reduction of evidence of tinnitus [7]: 47%
- selectivity for α4β2 nAChRs relative to α7 nAChRs [4]: 4,000-5,000 fold
- selectivity for α4β2 nAChRs compared to α3β4 nAChRs [5]: 4,000-5,000 fold
- type of action at α3β4 nAChRs [8]: partial agonist actions
